Assay results as given in US9382222B2, “Benzyl sulfonamide derivatives as RORc modulators” (Genentech, Inc., priority 2012, dated 2016).

target: T1, RORc ligand binding domain (Homo sapiens, UniProt P51449); experiment: In Vitro RORc Ligand Binding Assay; conditions: displacement of 25-[3H]hydroxycholesterol (6 nM), 0.6 ug/mL RORc receptor, 3 h at 25° C.
T1 construct: host or cells: E. coli
T1 sequence (P51449 269-508 limits assumed): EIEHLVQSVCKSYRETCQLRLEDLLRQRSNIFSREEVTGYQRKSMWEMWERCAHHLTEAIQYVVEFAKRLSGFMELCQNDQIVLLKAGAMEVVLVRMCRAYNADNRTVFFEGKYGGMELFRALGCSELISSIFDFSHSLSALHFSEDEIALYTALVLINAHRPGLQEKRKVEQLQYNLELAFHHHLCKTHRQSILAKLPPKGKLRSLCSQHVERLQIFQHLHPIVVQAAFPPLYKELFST
Procedure: In Vitro RORc Ligand Binding Assay This assay was used to determine a compound's potency in inhibiting activity of RORc by determining, Kiapp, IC50, or percent inhibition values. […] On day of the assay, 100 uL of 0.05% CHAPS (in deionized H2O) was added to all wells of the GFB Unifilter plate and allowed soak for 1 h. A wash buffer of 50 mM HEPES (pH 7.4), 150 mM NaCl, and 5 mM MgCl2 was prepared to wash the filter plate. To prepare an assay buffer, BSA was added to the wash buffer to reach 0.01% and DTT was added to reach 1 mM. […] The 20× compound stocks were diluted in DMSO with Assay Buffer 4-fold to reach 5× the final test concentration in 25% DMSO (10 uL compound+30 uL Assay Buffer). Solutions were mixed by aspiration several times with a pipette set on 50 uL volume. For the assay, 10 uL of 5× compound stock solutions in 25% DMSO were added to the assay plate in duplicate. For two point screening, 10 mM stock compound solutions were diluted in DMSO to obtain 200 uM (20× the high test concentration) and then diluted 10-fold further to reach 20 uM (20× the low test concentration). The 20× stocks were diluted 4-fold with Assay Buffer (10 uL compound+30 uL Assay Buffer) to reach 5× the test concentrations (50 uM and 5 uM) and 10 uL were added to two assay plates for the duplicate wells. […] Add 20 uL to all wells to reach 6 nM final concentration in the assay. […] Stock receptor solution was diluted in assay buffer to obtain 1.5 ug/mL in Assay Buffer. 20 uL was added to all wells. For No Receptor samples, 20 uL Assay Buffer was substituted for receptor solution. […] Following addition to the wells, the plates were incubated 3 h at 25° C. Using a Packard Filtermate Harvester, the filter plate were washed 4 times following transfer of the incubated samples. Plates were dry-filtered completely (2 h at 50° C. or overnight at room temperature). 50 uL Microscint 0 was added to all wells and read on Topcount protocol Inverted. […] For NSB wells, 1 uM 25-hydroxycholesterol was also present.

Row | Compound | IC50
1 | CC(=O)N1CCN(c2ccc(S(=O)(=O)N(CC(F)(F)F)c3cccc(Cl)c3)cc2)CC1 [Compound 37, 4-(4-Acetyl-piperazin-1-yl)-N-(3-chloro-phenyl)-N-(2,2,2-trifluoro-ethyl)-benzenesulfonamide] | 305 nM
2 | CC(=O)N1CCN(c2ccc(S(=O)(=O)N(CC(F)F)c3cccc(Cl)c3)cc2)CC1 [Compound 38, 4-(4-Acetyl-piperazin-1-yl)-N-(3-chloro-phenyl)-N-(2,2-difluoro-ethyl)-benzenesulfonamide] | 1400 nM
3 | CC(C)CN(c1cccc(Cl)c1)S(=O)(=O)c1ccc(OC2CCN(S(=O)(=O)N(C)C)CC2)cc1 [Compound 39, 4-{4-[(3-Chloro-phenyl)-isobutyl-sulfamoyl]-phenoxy}-piperidine-1-sulfonic acid dimethylamide] | 191 nM
4 | CC(C)CN(c1cccc(Cl)c1)S(=O)(=O)c1cccc(NC2CCN(S(C)(=O)=O)CC2)c1 [Compound 40, N-(3-Chloro-phenyl)-N-isobutyl-3-(1-methanesulfonyl-piperidin-4-ylamino)-benzenesulfonamide] | 480 nM
5 | CC(=O)N1CCN(c2ccc(S(=O)(=O)N(CC(C)C)c3ccccc3C(F)(F)F)cc2)CC1 [Compound 41, 4-(4-Acetyl-piperazin-1-yl)-N-isobutyl-N-(2-trifluoromethyl-phenyl)-benzenesulfonamide] | 28 nM
6 | CC(C)CN(c1cccc(Cl)c1)S(=O)(=O)c1ccc(O[C@@H]2CCCN(S(C)(=O)=O)C2)cc1 [Compound 42, N-(3-Chloro-phenyl)-N-isobutyl-4-((R)-1-methanesulfonyl-piperidin-3-yloxy)-benzenesulfonamide] | 164 nM
7 | CC(C)CN(c1cccc(Cl)c1)S(=O)(=O)c1ccc(O[C@H]2CCCN(S(C)(=O)=O)C2)cc1 [Compound 43, N-(3-Chloro-phenyl)-N-isobutyl-4-((S)-1-methanesulfonyl-piperidin-3-yloxy)-benzenesulfonamide] | 281 nM
8 | CC(C)CN(c1cccc(Cl)c1)S(=O)(=O)c1ccc(N[C@@H]2CCCN(S(C)(=O)=O)C2)cc1 [Compound 44, N-(3-Chloro-phenyl)-N-isobutyl-4-((R)-1-methanesulfonyl-piperidin-3-ylamino)-benzenesulfonamide] | 117 nM
9 | CC(C)CN(c1cccc(Cl)c1)S(=O)(=O)c1ccc(N[C@H]2CCCN(S(C)(=O)=O)C2)cc1 [Compound 45, N-(3-Chloro-phenyl)-N-isobutyl-4-((S)-1-methanesulfonyl-piperidin-3-ylamino)-benzenesulfonamide] | 271 nM
10 | CC(C)CN(c1ccccc1C(F)(F)F)S(=O)(=O)c1ccc(NC2CCN(S(C)(=O)=O)CC2)cc1 [Compound 46, N-Isobutyl-4-(1-methanesulfonyl-piperidin-4-ylamino)-N-(2-trifluoromethyl-phenyl)-benzenesulfonamide] | 33 nM
11 | CC(C)CN(c1cccc(F)c1F)S(=O)(=O)c1ccc(OC2CCN(S(C)(=O)=O)CC2)cc1 [Compound 49, N-(2,3-Difluoro-phenyl)-N-isobutyl-4-(1-methanesulfonyl-piperidin-4-yloxy)-benzenesulfonamide] | 8 nM
12 | CC(C)CN(c1ccc(F)cc1F)S(=O)(=O)c1ccc(OC2CCN(S(C)(=O)=O)CC2)cc1 [Compound 50, N-(2,4-Difluoro-phenyl)-N-isobutyl-4-(1-methanesulfonyl-piperidin-4-yloxy)-benzenesulfonamide] | 9 nM
13 | CC(C)CN(c1cc(F)ccc1F)S(=O)(=O)c1ccc(OC2CCN(S(C)(=O)=O)CC2)cc1 [Compound 51, N-(2,5-Difluoro-phenyl)-N-isobutyl-4-(1-methanesulfonyl-piperidin-4-yloxy)-benzenesulfonamide] | 8 nM
14 | CC(C)CN(c1c(F)cccc1F)S(=O)(=O)c1ccc(OC2CCN(S(C)(=O)=O)CC2)cc1 [Compound 52, N-(2,6-Difluoro-phenyl)-N-isobutyl-4-(1-methanesulfonyl-piperidin-4-yloxy)-benzenesulfonamide] | 11 nM
15 | CC(C)CN(c1ccc(F)cc1)S(=O)(=O)c1ccc(C(=O)N2CCN(S(C)(=O)=O)CC2)cc1 [Compound 53, N-(4-Fluoro-phenyl)-N-isobutyl-4-(4-methanesulfonyl-piperazine-1-carbonyl)-benzenesulfonamide] | 299 nM
16 | CC(=O)N1CCN(c2ccc(S(=O)(=O)N(Cc3cccc(C(F)(F)F)c3)CC(C)C)cc2)CC1 [Compound 58, 4-(4-Acetyl-piperazin-1-yl)-N-isobutyl-N-(3-trifluoromethyl-benzyl)-benzenesulfonamide] | 244 nM
17 | CC(C)CN([C@H](C)c1ccccc1)S(=O)(=O)c1ccc(N2CCN(S(C)(=O)=O)CC2)cc1 [Compound 62, N-Isobutyl-4-(4-methanesulfonyl-piperazin-1-yl)-N-((R)-1-phenyl-ethyl)-benzenesulfonamide] | 483 nM
18 | CC(C)CN([C@@H](C)c1ccccc1)S(=O)(=O)c1ccc(N2CCN(S(C)(=O)=O)CC2)cc1 [Compound 63, N-Isobutyl-4-(4-methanesulfonyl-piperazin-1-yl)-N-((S)-1-phenyl-ethyl)-benzenesulfonamide] | 39 nM
19 | CC(C)CN(Cc1ccc(OC(F)(F)F)cc1)S(=O)(=O)c1ccc(N2CCN(S(C)(=O)=O)CC2)cc1 [Compound 64, N-Isobutyl-4-(4-methanesulfonyl-piperazin-1-yl)-N-(4-trifluoromethoxy-benzyl)-benzenesulfonamide] | 102 nM
20 | COc1ccc(CN(CC(C)C)S(=O)(=O)c2ccc(N3CCN(S(C)(=O)=O)CC3)cc2)cc1 [Compound 66, N-Isobutyl-4-(4-methanesulfonyl-piperazin-1-yl)-N-(4-methoxy-benzyl)-benzenesulfonamide] | 79 nM
21 | CC(=O)N1CCN(c2ccc(S(=O)(=O)N(Cc3ccc(Cl)cc3)CC(C)C)cc2)CC1 [Compound 67, 4-(4-Acetyl-piperazin-1-yl)-N-(4-chloro-benzyl)-N-isobutyl-benzenesulfonamide] | 87 nM
22 | CC(C)CN(Cc1ccccc1C(F)(F)F)S(=O)(=O)c1ccc(N2CCN(S(C)(=O)=O)CC2)cc1F [Compound 69, 2-Fluoro-N-isobutyl-4-(4-methanesulfonyl-piperazin-1-yl)-N-(2-trifluoromethyl-benzyl)-benzenesulfonamide] | 20 nM
23 | CC(C)CN(Cc1ccc(OC(F)F)cc1)S(=O)(=O)c1ccc(N2CCN(S(C)(=O)=O)CC2)cc1 [Compound 72, N-(4-Difluoromethoxy-benzyl)-N-isobutyl-4-(4-methanesulfonyl-piperazin-1-yl)-benzenesulfonamide] | 83 nM
24 | CC(C)CN(Cc1ccccc1C(F)(F)F)S(=O)(=O)c1ccc(N2CCN(S(=O)(=O)N(C)C)CC2)cc1 [Compound 73, 4-{4-[Isobutyl-(2-trifluoromethyl-benzyl)-sulfamoyl]-phenyl}-piperazine-1-sulfonic acid dimethylamide] | 23 nM
25 | CC(C)CN(Cc1ccccc1C(F)(F)F)S(=O)(=O)c1ccc(N2CCN(S(C)(=O)=O)CC2)c(F)c1 [Compound 75, 3-Fluoro-N-isobutyl-4-(4-methanesulfonyl-piperazin-1-yl)-N-(2-trifluoromethyl-benzyl)-benzenesulfonamide] | 8 nM
26 | CC(=O)N1CCN(c2ccc(S(=O)(=O)N(Cc3ccccc3C(F)(F)F)C3CCC3)cc2)CC1 [Compound 76, 4-(4-Acetyl-piperazin-1-yl)-N-cyclobutyl-N-(2-trifluoromethyl-benzyl)-benzenesulfonamide] | 31 nM
27 | CN(C)S(=O)(=O)N1CCN(c2ccc(S(=O)(=O)N(Cc3ccccc3C(F)(F)F)C3CCC3)cc2)CC1 [Compound 77, 4-{4-[Cyclobutyl-(2-trifluoromethyl-benzyl)-sulfamoyl]-phenyl}-piperazine-1-sulfonic acid dimethylamide] | 25 nM
28 | C=C(c1ccccc1)N(CC(C)C)S(=O)(=O)c1ccc(N2CCN(S(C)(=O)=O)CC2)cc1 [Compound 78, N-Isobutyl-4-(4-methanesulfonyl-piperazin-1-yl)-N-(1-phenyl-vinyl)-benzenesulfonamide] | 23 nM
29 | CN(C)S(=O)(=O)N1CCN(c2ccc(S(=O)(=O)N(Cc3ccccc3C(F)(F)F)CC(F)(F)F)cc2)CC1 [Compound 79, 4-{4-[(2,2,2-Trifluoro-ethyl)-(2-trifluoromethyl-benzyl)-sulfamoyl]-phenyl}-piperazine-1-sulfonic acid dimethylamide] | 55 nM
